Type in all cases: functional
The test system of experiment [1] is Candida albicans. In words: Antifungal activity against Candida albicans SC5314 assessed as fungal growth inhibition incubated for 48 hrs by broth microdilution method. In general terms: In broth dilution the organism is exposed to a series of concentrations in liquid medium.
The subject of experiment [2] is Candida albicans. In words: Antifungal activity against Candida albicans 22 assessed as fungal growth inhibition incubated for 48 hrs by broth microdilution method.
For experiment [3], the system named is Candida albicans. In words: Antifungal activity against Candida albicans 21 assessed as fungal growth inhibition incubated for 48 hrs by broth microdilution method.

In brackets after ≈: the same amount, converted by molar mass.

We go through 23 compounds from ChEMBL document CHEMBL5375952, “Discovery of Novel 8-Hydroxyquinoline Derivatives with Potent In Vitro and In Vivo Antifungal Activity” (J Med Chem, 2023).

On to `CCCC(=O)NC(c1ccccc1)c1ccc2cccnc2c1O` (centres undefined), for which the MIC in the experiment on Candida albicans [1], with Candida albicans [2] and with Candida albicans [3] was 1 µg/mL (≈ 3.12 µM) in each case.
In the case of `CSc1ccc(C(NC(=O)Cc2ccccc2)c2ccc3cccnc3c2O)cc1` (centres undefined), the MIC (usually the least concentration at which growth counts as inhibited) stood at 1 µg/mL (≈ 2.41 µM) in the experiment on Candida albicans [1], 4 µg/mL (≈ 9.65 µM) in the experiment with Candida albicans [2] and 2 µg/mL (≈ 4.82 µM) with Candida albicans [3].
On to `COc1ccccc1C(NC(=O)C(C)C)c1cc(Cl)c2cccnc2c1O` (centres undefined), for which the MIC in the experiment on Candida albicans [1] was above 64 µg/mL; in the experiment with Candida albicans [2] it was above 64 µg/mL; with Candida albicans [3] it was 64 µg/mL (≈ 166 µM).
As for `CS(=O)(=O)c1ccc(C(NC(=O)Cc2ccccc2)c2ccc3cccnc3c2O)cc1` (centres undefined), the MIC was found to be 2 µg/mL (≈ 4.48 µM) with Candida albicans [1], 2 µg/mL (≈ 4.48 µM) in the experiment on Candida albicans [2] and 1 µg/mL (≈ 2.24 µM) in the experiment with Candida albicans [3].
As to `CCN(CC)c1ccc(C(NC(=O)CCc2ccccc2)c2ccc3cccnc3c2O)cc1` (centres undefined), the results for the MIC with Candida albicans [1], in the experiment with Candida albicans [2] and in the experiment with Candida albicans [3] were 2 µg/mL (≈ 4.41 µM), 1 µg/mL (≈ 2.2 µM) and 0.25 µg/mL (≈ 0.551 µM), respectively.
The corresponding values for `COc1ccc(C(NC(C)=O)c2ccc3cccnc3c2O)c(OC)c1` (centres undefined) are 4 µg/mL (≈ 11.4 µM), 4 µg/mL (≈ 11.4 µM) and 4 µg/mL (≈ 11.4 µM).
On to `CCC(=O)NC(c1ccc(C)cc1)c1ccc2cccnc2c1O` (centres undefined), for which the MIC in the experiment with Candida albicans [1], with Candida albicans [2] and in the experiment on Candida albicans [3] was 0.5 µg/mL (≈ 1.56 µM) each time.
Consider `CN1CCN(C(c2ccncc2)c2ccc3cccnc3c2O)CC1` (centres undefined), for which the MIC in the experiment on Candida albicans [1], in the experiment on Candida albicans [2] and with Candida albicans [3] was 4 µg/mL (≈ 12 µM) in each case.
`COc1ccc(C(NC(=O)Cc2ccccc2)c2ccc3cccnc3c2O)cc1OC` (centres undefined): the MIC with Candida albicans [1], in the experiment with Candida albicans [2] and in the experiment with Candida albicans [3] was 0.5 µg/mL (≈ 1.17 µM) in each case.
For the compound `COc1ccc(C(NC(=O)CC(C)C)c2ccc3cccnc3c2O)cc1OC` (centres undefined), the MIC in the experiment with Candida albicans [1], in the experiment on Candida albicans [2] and in the experiment with Candida albicans [3] was 0.5 µg/mL (≈ 1.27 µM) in each case.
For `CCCC(=O)NC(c1cccc([N+](=O)[O-])c1)c1ccc2cccnc2c1O` (centres undefined), the MIC in the experiment with Candida albicans [1], in the experiment with Candida albicans [2] and with Candida albicans [3] was 1 µg/mL (≈ 2.74 µM) each time.
Regarding `CCN(CC)c1ccc(C(NC(=O)Cc2ccccc2)c2ccc3cccnc3c2O)cc1` (centres undefined), the MIC was 0.5 µg/mL (≈ 1.14 µM) with Candida albicans [1], 2 µg/mL (≈ 4.55 µM) in the experiment with Candida albicans [2] and 1 µg/mL (≈ 2.28 µM) in the experiment on Candida albicans [3].
For `CC(C)C(=O)NC(c1ccc(C(F)(F)F)cc1)c1ccc2cccnc2c1O` (centres undefined) the same measures were 1 µg/mL (≈ 2.57 µM), 2 µg/mL (≈ 5.15 µM) and 1 µg/mL (≈ 2.57 µM).
`Cc1ccc(C(NC(=O)Cc2ccccc2)c2ccc3cccnc3c2O)cc1` (centres undefined): the MIC was found to be 1 µg/mL (≈ 2.61 µM) in the experiment with Candida albicans [1], 1 µg/mL (≈ 2.61 µM) with Candida albicans [2] and 0.25 µg/mL (≈ 0.654 µM) in the experiment on Candida albicans [3].
Take `CC(C)C(=O)NC(c1ccc(OC(F)(F)F)cc1)c1ccc2cccnc2c1O` (centres undefined): the figures for the MIC in the experiment on Candida albicans [1], in the experiment with Candida albicans [2] and in the experiment on Candida albicans [3] were 0.5 µg/mL (≈ 1.24 µM), 1 µg/mL (≈ 2.47 µM) and 1 µg/mL (≈ 2.47 µM), respectively.
As to `CC(=O)NC(c1ccccc1Cl)c1ccc2cccnc2c1O` (centres undefined), the MIC in the experiment on Candida albicans [1], in the experiment with Candida albicans [2] and with Candida albicans [3] was 8 µg/mL (≈ 24.5 µM) in each case.
`CSc1ccc(C(NC(=O)C(C)C)c2ccc3cccnc3c2O)cc1` (centres undefined): the MIC in the experiment on Candida albicans [1] worked out at 2 µg/mL (≈ 5.46 µM); in the experiment with Candida albicans [2], 2 µg/mL (≈ 5.46 µM); in the experiment with Candida albicans [3], 1 µg/mL (≈ 2.73 µM).
Consider `CC(=O)NC(c1ccc2ccccc2c1)c1ccc2cccnc2c1O` (centres undefined), for which the MIC in the experiment with Candida albicans [1] is 0.25 µg/mL (≈ 0.73 µM); in the experiment on Candida albicans [2] it was 0.125 µg/mL (≈ 0.365 µM); in the experiment on Candida albicans [3], 0.5 µg/mL (≈ 1.46 µM).
For `Cc1ccc(C(NC(=O)C(C)C)c2ccc3cccnc3c2O)cc1` (centres undefined) the same measures were 2 µg/mL (≈ 5.98 µM), 1 µg/mL (≈ 2.99 µM) and 1 µg/mL (≈ 2.99 µM).
Turning to `COc1ccc(C(NC(=O)Cc2ccccc2)c2ccc3cccnc3c2O)cc1` (centres undefined), the MIC with Candida albicans [1] turned out to be 2 µg/mL (≈ 5.02 µM); in the experiment with Candida albicans [2], 1 µg/mL (≈ 2.51 µM); in the experiment with Candida albicans [3], 0.5 µg/mL (≈ 1.25 µM).
On to `COc1ccc(C(NC(=O)C(C)C)c2ccc3cccnc3c2O)cc1` (centres undefined), for which the MIC in the experiment on Candida albicans [1] amounted to 2 µg/mL (≈ 5.71 µM); in the experiment on Candida albicans [2] it was 1 µg/mL (≈ 2.85 µM); in the experiment with Candida albicans [3], 0.5 µg/mL (≈ 1.43 µM).
The corresponding values for `O=C(Cc1ccccc1)NC(c1ccc(C(F)(F)F)cc1)c1ccc2cccnc2c1O` (centres undefined) are 1 µg/mL (≈ 2.29 µM), 2 µg/mL (≈ 4.58 µM) and 1 µg/mL (≈ 2.29 µM).
For `CC(=O)NC(c1ccc(Cl)cc1Cl)c1ccc2cccnc2c1O` (centres undefined) the same measures were 0.125 µg/mL (≈ 0.346 µM), 0.5 µg/mL (≈ 1.38 µM) and 0.5 µg/mL (≈ 1.38 µM).
